# According to patent US9145354B2, “Pharmaceutical compounds” (priority 2011, dated 2015):
# Where two headings read alike, the source gives them in different places.
# Tests used:
# full length NS3/4a = full length NS3/4a (Hepatitis C virus genotype 1b (isolate BK) (HCV), UniProt P26663); assay: NS3 Protease Assay (Example A), FRET-based; format: biochemical
# How it was run: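 Initial rates were taken from fluorescence progress curves over 30 min at room temperature, and IC50 was fitted across replicates. In-house full-length NS3/4a cleaved a FRET peptide (5-FAMsp/QXL520) from the NS4A/B site. Medium: 50 mM Tris pH8, 20 mM DTT, 1% CHAPS, 10% glycerol, 5% DMSO.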
# [1] = Replicon Assay (Example B), Alamar Blue cytotoxicity CC50; format: cell-based; details: human, lower value of the cell pair
# From the text: (§1) Thus, Huh-7 cells persistently infected with an HCV-RNA construct (Bartenschlager, R. Hepatitis C replicons: potential role for drug development. Nature Rev. Drug Discov. 1, 911-916 (2002)) comprising: 5′ and 3′ non-translated regions (NTR); the non-structural genes NS3 to NS5b; as well as the G418 drug resistance gene, neomycin, (for selection of cells carrying HCV replicon RNA) fused to the firefly Luciferase reporter gene (pFKI3889Iuc-ubi-neo/NS3-3′/ET) were used to determine the cell based antiviral activity of compounds using luciferase activity as an indirect readout of HCV RNA load. In this assay […] huh-7 cells persistently infected with the HCV subgenomic replicon construct above were plated/well in a 96 well tissue culture plate. The cells were allowed to attach overnight in DMEM medium supplemented with 10% FBS 1% NEAA, and 250 μg/ml gentamicin. The following day the medium was replaced with 200 μl/well of fresh medium as described above lacking gentamicin. Semilog dilutions of compounds in medium were then added to triplicate wells (non-edge) of the cultured cells to give a 0.1% DMSO final concentration. Plates were then incubated at 37° C. in an atmosphere of 5% CO2 and air for 72 h. […] The plate was then read at 535 nm (excitation) and 590 nm (emission) on a SpectraMax Gemini reader (Molecular Devices) to determine the number of viable cells by measuring the conversion of rezasurin (Alamar blue) to resorufin in response to mitochondrial activity. In order to determine the antiviral effect of these compounds EC50 values were determined by measuring the luciferase activity of the cells. Alamar blue solution was removed from the wells and replaced with 100 μl/well of medium along with 100 μl/well of Bright-Glo reagent and incubated at room temperature for 5 minutes before transferring 100 μl/well to a white bottom 96 well plate to read in a luminometer as described in the Bright-Glo Luciferase Assay System protocol (promega).
# [2] = system: HCV subgenomic replicon in Huh-7 cells; assay: Replicon Assay (Example B), luciferase readout EC50; format: cell-based; details: Hepatitis C virus, Huh-7, replicon assay, luciferase readout; upper value of the cell pair; read-out: Assay B EC50
# Procedure: The activities of compounds of the invention against HCV in a cellular environment were analysed using a replicon assay as described below.
# as §1
# [3] = HCV NS3 protease assay, full length NS3/4a, read-out: Assay A IC50 (μM) average
# [4] = read-out: IC50 against the protease activity of the full length NS3/4a
# Sequence of full length NS3/4a (P26663 1027-1657): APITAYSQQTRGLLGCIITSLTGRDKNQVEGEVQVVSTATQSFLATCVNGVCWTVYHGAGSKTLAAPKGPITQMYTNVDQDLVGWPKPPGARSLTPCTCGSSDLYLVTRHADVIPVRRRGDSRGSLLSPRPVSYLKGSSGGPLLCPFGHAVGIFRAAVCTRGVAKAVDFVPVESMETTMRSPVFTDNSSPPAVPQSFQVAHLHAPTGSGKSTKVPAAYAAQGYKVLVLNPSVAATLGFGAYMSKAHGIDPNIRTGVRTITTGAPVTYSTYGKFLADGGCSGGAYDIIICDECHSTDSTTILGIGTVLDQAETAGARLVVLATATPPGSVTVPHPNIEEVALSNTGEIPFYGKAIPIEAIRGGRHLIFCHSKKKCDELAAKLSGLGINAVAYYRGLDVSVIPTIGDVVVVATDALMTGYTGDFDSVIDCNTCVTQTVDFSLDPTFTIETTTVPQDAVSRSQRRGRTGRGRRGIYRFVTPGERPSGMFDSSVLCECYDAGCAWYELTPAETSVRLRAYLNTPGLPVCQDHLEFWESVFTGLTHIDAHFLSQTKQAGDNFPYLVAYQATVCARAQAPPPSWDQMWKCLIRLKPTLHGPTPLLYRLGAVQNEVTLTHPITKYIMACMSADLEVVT
SMILES,IC50 (full length NS3/4a; [3]) [µM],CC50 at 72 h [1] [nM],EC50 [2] [nM],inhibition at 0.1 µM (full length NS3/4a; @ 0.1 uM) [%],IC50 (full length NS3/4a; [4]) [µM],inhibition at 0.03 µM (full length NS3/4a; @ 0.03 uM) [%]
"CC[C@@H](N[C@@H](C)CC(N)=O)c1ccc(Cl)c(C(=O)c2cc(C)on2)c1F [Example 110, (3S)-3-{[(1R)-1-{4-chloro-2-fluoro-3-[(5-methyl-1,2-oxazol-3-yl)carbonyl]-phenyl}-propyl]amino}-butanamide]",0.17,> 3000,510,–,–,–
"CC[C@@H](NC(C)(C)CC(N)=O)c1ccc(Cl)c(C(=O)c2cccnc2)c1F [Example 113, 3-{[(1R)-1-{4-Chloro-2-fluoro-3-[(pyridin-3-yl)carbonyl]phenyl}propyl]amino}-3-methylbutanamide]",0.093,> 3000,180,–,–,–
"[2H]C([2H])([2H])C([2H])([2H])[C@@H](N[C@@H](C)CC(N)=O)c1ccc(Cl)c(C(=O)c2ccccc2)c1F [Example 115, (3S)-3-{[(1R)-1-(3-benzoyl-4-chloro-2-fluorophenyl)(2,2,3,3,3-D)propyl]amino}-butanamide]",–,> 3000,4.1,59,–,–
"CC[C@@H](N[C@@H](C)CC(N)=O)c1ccc(Cl)c(C(=O)c2ccc[n+]([O-])c2)c1F [Example 116, (S)-3-{(R)-1-[4-Chloro-2-fluoro-3-(1-oxy-pyridine-3-carbonyl)-phenyl]-propylamino}-butyramide]",0.81,> 3000,> 3000,–,–,–
"C[C@@H](CC(N)=O)N[C@@H](c1ccc(Cl)c(C(=O)c2cccnc2)c1F)C1CC1 [Example 119, (3S)-3-{[(R)-{4-chloro-2-fluoro-3-[(pyridin-3-yl)carbonyl]phenyl} (cyclopropyl)methyl]amino}-butanamide]",0.12,> 3000,71,–,< 1,–
"C[C@@H](CC(N)=O)N[C@@H](c1ccc(Cl)c(C(=O)c2ccc(F)cc2)c1F)C1CC1 [Example 121, (3S)-3-{[(R)-{4-chloro-2-fluoro-3-[(4-fluorophenyl)-carbonyl]phenyl}(cyclopropyl)methyl]amino}butanamide]",–,> 3000,9.9,–,–,38
"CC[C@@H](N[C@@H](C)C1(C(N)=O)CC1)c1ccc(Cl)c(C(=O)c2cccnc2)c1F [Example 132, 1-[(1S)-1-{[(1R)-1-{4-chloro-2-fluoro-3-[(pyridin-3-yl)carbonyl]phenyl}propyl]amino}ethyl]cyclopropane-1-carboxamide]",0.14,> 3000,25,–,–,–
"CC[C@@H](N[C@@H](C)CC(N)=O)c1ccc(Cl)c(C(=O)c2ccc(C#N)nc2)c1F [Example 133, (3S)-3-{[(1R)-1-{4-chloro-3-[(6-cyanopyridin-3-yl)carbonyl]-2-fluorophenyl}propyl]-amino}butanamide]",0.12,> 3000,> 3000,–,–,–
"C[C@@H](CC(N)=O)N[C@@H](c1ccc(Cl)c(C(=O)c2ccncc2)c1F)C1CC1 [Example 134, (3S)-3-{[(R)-{4-chloro-2-fluoro-3-[(pyridin-4-yl)carbonyl]phenyl}-(cyclopropyl)methyl]-amino}butanamide]",0.085,> 3000,52,–,–,–
"CC[C@@H](N[C@@H](C)CC(N)=O)c1ccc(Cl)c(C(=O)c2ccc(-n3cccn3)nc2)c1F [Example 139, (3S)-3-{[(1R)-1-(4-chloro-2-fluoro-3-{[6-(1H-pyrazol-1-yl)pyridin-3-yl]carbonyl}phenyl)-propyl]amino}-butanamide]",0.33,> 3000,420,–,< 1,–
"CC[C@@H](N[C@@H](C)CC(N)=O)c1ccc(Cl)c(C(=O)c2cc[n+]([O-])cc2)c1F [Example 142, (S)-3-{(R)-1-[4-Chloro-2-fluoro-3-(1-oxy-pyridine-4-carbonyl)-phenyl]-propylamino}-butyramide]",0.3,> 3000,> 3000,–,< 1,–
"CC[C@@H](N[C@@H](C)CC(N)=O)c1ccc(Cl)c(C(=O)c2ccc(C(=O)O)cc2)c1F [Example 144, 4-({3-[(1R)-1-{[(2S)-1-Carbamoylpropan-2-yl]amino}propyl]-6-chloro-2-fluorophenyl}carbonyl)-benzoic acid]",1.2,> 3000,> 3000,–,1 to 5,–
"CC[C@@H](N[C@@H](C)CC(N)=O)c1ccc(Cl)c(C(=O)c2cncc(N)c2)c1F [Example 145, (3S)-3-{[(1R)-1-{3-[(5-aminopyridin-3-yl)carbonyl]-4-chloro-2-fluorophenyl}propyl]-amino}butanamide]",0.84,> 10000,1000,–,–,–
"CC[C@@H](N[C@@H](C)CC(N)=O)c1ccc(Cl)c(C(=O)c2ccc(=O)[nH]c2)c1F [Example 147, (3S)-3-{[(1R)-1-{4-chloro-2-fluoro-3-[(6-oxo-1,6-dihydropyridin-3-yl)carbonyl]-phenyl}propyl]amino}-butanamide]",0.39,> 10000,2100,–,–,–
"CC[C@@H](N[C@@H](C)CC(N)=O)c1ccc(Cl)c(C(=O)c2ccc(N)cn2)c1F [Example 149, (3S)-3-{[(1R)-1-{3-[(5-aminopyridin-2-yl)carbonyl]-4-chloro-2-fluorophenyl}propyl]amino}-butanamide]",0.2,> 10000,39,–,–,–
"CC[C@@H](N[C@@H](C)CC(N)=O)c1ccc(C)c(C(=O)c2ccccc2)c1F [Example 150, (3S)-3-{[(1R)-1-(3-benzoyl-2-fluoro-4-methylphenyl)propyl]-amino}butanamide]",0.068,> 10000,310,–,–,–
"CC[C@@H](N[C@@H](C)CC(N)=O)c1ccc(OC)c(C(=O)c2ccccc2)c1F [Example 152, (3S)-3-{[(1R)-1-(3-benzoyl-2-fluoro-4-methoxyphenyl)propyl]-amino}butanamide]",0.051,> 10000,66,–,–,–
"C[C@@H](CC(N)=O)N[C@@H](c1ccc(Cl)c(C(=O)c2ccc(N)nc2)c1F)C1CC1 [Example 154, (3S)-3-{[(R)-{3-[(6-aminopyridin-3-yl)carbonyl]-4-chloro-2-fluorophenyl}(cyclo-propyl)methyl]amino}-butanamide]",0.2,> 10000,37,–,–,–
"CC[C@@H](N[C@@H](C)CC(N)=O)c1ccc(F)c(C(=O)c2ccccc2)c1F [Example 157, (3S)-3-{[(1R)-1-(3-benzoyl-2,4-difluorophenyl)propyl]-amino}butanamide]",0.045,> 10000,610,–,–,–
"CC[C@@H](N[C@@H](C)CC(N)=O)c1ccc(Cl)c(C(=O)c2ccc(-n3cc(CO)cn3)nc2)c1F [Example 159, (3S)-3-{[(1R)-1-[4-chloro-2-fluoro-3-({6-[4-(hydroxymethyl)-1H-pyrazol-1-yl]pyridin-3-yl}carbonyl)phenyl]-propyl]amino}-butanamide]",0.24,> 10000,100,–,–,–
"CC[C@@H](NCCC(N)=O)c1ccc(Cl)c(C(=O)c2cccnc2)c1F [Example 162, 3-{[(1R)-1-{4-Chloro-2-fluoro-3-[(pyridin-3-yl)carbonyl]phenyl}propyl]amino}propanamide]",0.59,> 3000,> 3000,–,< 1,–
"CC[C@@H](NCCC(N)=O)c1ccc(Cl)c(C(=O)c2ccccc2)c1F [Example 167, 3-{[(1R)-1-(3-Benzoyl-4-chloro-2-fluorophenyl)propyl]amino}-propanamide]",0.098,> 3000,630,–,< 1,–
"CC[C@@H](NCC1(C(N)=O)CC1)c1ccc(Cl)c(C(=O)c2cccnc2)c1F [Example 168, 1-({[(1R)-1-{4-Chloro-2-fluoro-3-[(pyridin-3-yl)carbonyl]phenyl}propyl]amino}methyl)-cyclopropane-1-carboxamide]",0.55,> 3000,> 3000,–,< 1,–
"CC[C@H](NCCO)c1ccc(Cl)c(C(=O)c2ccccc2)c1F [Example 171, 2-{[(1S)-1-(3-benzoyl-4-chloro-2-fluorophenyl)propyl]-amino}ethan-1-ol]",0.056,> 3000,> 3000,–,< 1,–
